Source: US6733971B2, “Method for identifying an agent that affects a hedgehog signaling pathway” (priority 1998, dated 2004)

Experiments:
[1] = system: SV40 enhancer; experiment: Constitutively active SV40 enhancer luciferase reporter (specificity control); type: cell-based; settings: 5 nM (data not shown)
[2] = system: PP2C; settings: cited from earlier work
[3] = system: Ci; experiment: Ci induction in cl-8 cells with or without HH-N conditioned medium, Western blot; type: cell-based, Drosophila
Experimental: cl-8 cells were cultured as described in Van Leeuwen, F., et al. Nature, 368:342-344, 1994. Culture and transfection of S2 cells were performed as described in Porter, J. A. et al. Cell, 86: 21-34, 1996. The conditioned medium was made by culturing transfected S2 cells in cl-8 medium, and induced by adding CUSO4, to the final concentration of 0.5 Mm overnight. The conditioned medium was harvested the next day, centrifuged to remove S2 cells and the supernatant was used. To make lysate from cl-8 cells, cl-8 cells were washed, harvested in cold phosphate buffered saline (PBS), and then resuspended in NP-40 lysis buffer (150 Mm NaCl, 50 Mm Tris pH8, 1% NP-40, 1 Mm EDTA, 20 μg/ml aprotinin, 20 μg/ml leupeptin, 1 μg/ml pepstatin A, 2.5 μg/ml antipain, 100 μM PMSF, 50 mM NaF, 5 mM Na2P4O7). Cells were lysed at 4° C. for 10 minutes, then centrifuged at 13,000×g for 10 minutes. The supernatant was saved for Western blot analysis.
SDS-PAGE and protein transfer were carried out by standard methods. The primary antibodies used were: rat monoclonal anti-Ci 2Al 1:20 dilution; mouse monoclonal anti-Ptc 1:1000 dilution; mouse monoclonal anti-actin 1:2500. Secondary antibodies were from Jackson Immunologicals. The filters were developed using SuperSignal from Pierce.
Tautomycin (TAU) and okadaic acid (OA) were purchased from Calbiochem and dissolved in dimethyl sulfoxide (DMSO) to different concentrations. The phosphatase inhibitors were mixed with conditioned medium and the concentration of DMSO was adjusted to 0.2% for each sample. cl-8 cells were incubated with conditioned medium and phosphatase inhibitor mixture for 4 hours and lysed for analysis.

[4] = system: COUP-TFII mRNA; experiment: COUP-TFII mRNA in P19 cells, RNase protection assay; type: cell-based, mouse; settings: 5 nM for 12 hours, with 1.0 nM Shh-N
Experimental: The P19 mouse embryo carcinoma cell line which was earlier shown to contain increased levels of COUP-TF transcripts after retinoid treatment was utilized. Jonk, L. J. C., et al., Mechan. of Dev. (1994) 47:81-97). Conditioned media obtained from COS-1 cells transfected with mouse Shh-N cDNA expression plasmid or purified E. coli expressed recombinant Shh-N was used.
Briefly, a total of 20 μg RNA was hybridized to a 450 (FIG. 5A) or 120 (FIG. 7B) nucleotide riboprobe that corresponds to the 5′ untranslated region (UTR) of the COUP-TFII gene along with a 670 (FIG. 5A) or 102 (FIG. 7B) nucleotide riboprobe of the murine Cyclophilin A coding region. The RPA II™ kit from Ambion was used to perform the RNase protection assay. The products were subjected to RNase digestion and analyzed on a 6% urea polyacrylamide gel.
P-19 cells were treated with phosphatase inhibitors to study the endogenous levels of COUP-TFII mRNA. […] Total RVA was isolated from these cells and 20 μg of RNA was used in a RNase protection assay as described above in Example 6. A region of the murine Cyclophilin A cDNA was used to generate riboprobe and was used as an internal control. P19 cells were co-treated with (FIG. 7C, lane 2, 4, 6, and 7) or without (FIG. 7C, lane 1, 3, and 5) 1.0 nM Shh-N and 5 nM OA (lane 3 and 4), 0.5 nM CyA (FIG. 7C, lane 5 & 6) or 5 nm NoA (FIG. 7C, lane 9). Cells were harvested after 24 hours of treatment and the nuclear extract was obtained for the binding reactions. Extracts were subjected to an EMSA as described earlier.

[5] = system: PP1 and PP2A enzyme activity; experiment: Protein phosphatase assay on nuclear extracts of control and Shh treated P19 cells; type: biochemical, mouse; settings: 2 nM, 15 minutes at 30° C., nuclear extracts of 1 nM Shh treated P19 cells
Experimental: P19 cells were treated with or without 1 nM Shh for 36 hours and nuclear extracts from these cells were obtained as described earlier. A protein phosphatase assay system™ (Life Technologies, Bethesda) was used to quantitate the phosphatase activity present in the control and induced extracts. P19 cells were treated with or without 1 nM Shh for 36 hours and nuclear extracts from these cells were obtained and incubated with 2 nM OA or 4 nM Inh-2 protein for 15 minutes at 30° C. Results are expressed as mean±sd from three separate experiments.

[6] = system: Islet-1 and neurofilament (NFL); experiment: Mouse neural tube explants, whole-mount immunostaining; type: cell-based; settings: 5 nM for 24 hours
Experimental: Mouse embryos at embryonic day 9-9.5 were dissected in such a way as to remove surface ectoderm and somitic mesoderm and neural tubes were isolated from the level of rhombomere 8 in the rostral region to the first segmenting somite in the caudal region. Neural tubes were cultured for 24 hours, dorsal-side down on Millicell-CM membranes and overlayed with Matrigel™ containing 10 ng/ml NT-3, with L15 air in presence or absence of 5nM OA. The explants were subjected to whole-mount immunostaining using a monoclonal antibody raised against mouse Islet-1 (39.4D5) or neurofilament (NFL) was used to analyze any changes in Islet-1 and NFL expression.

[7] = system: GliRE; experiment: GliRE-CAT reporter in P19 cells cotransfected with Shh expression plasmid; type: cell-based, mouse; settings: 5 nM for 14 hours
Experimental: P19 cells were cotransfected with pBKCMV-Shh expression plasmid and a GliRECAT reporter plasmid (1 μg)as described earlier. Krishnan, V., et al., Mol. Endo., 11: 1458-1466, 1997. Cells cotransfected with pBKCMY-Shh or pBKCMV plasmid (200 ng) were treated with or without 5 nM OA for 14 hours and reporter gene activity was assayed as described earlier. Gorman, C. M., et al., Mol. and Cell. Biology, 2:1044-1051, 1982. Results are expressed as mean±sd from three separate experiments.

C=C1[C@@H](O)[C@@H]2O[C@]3(CC[C@H](/C=C/[C@@H](C)[C@@H]4CC(C)=C[C@@]5(O[C@H](C[C@@](C)(O)C(=O)O)CC[C@H]5O)O4)O3)CC[C@H]2O[C@@H]1[C@@H](O)C[C@H](C)[C@H]1O[C@@]2(CCCCO2)CC[C@H]1C [OA, okadaic acid]
SV40 enhancer driven luciferase reporter gene activity [1]: did not effect
effect on PP2C [2]: no effect
Ci level ([3]; 1 nM, absence of HH signaling): significantly reduced
Ci mobility form (phosphorylation) ([3]; 1 nM, absence of HH signaling): shifted Ci to the low mobility form
Ci detection ([3]; 5 to 10 nM): completely undetectable
Ci level and mobility ([3]; presence of HH): overcame the induction effect of HH
Shh-induced COUP-TFII mRNA [4]: complete inhibition
Shh-induced phosphatase activity [5]: completely abolished
neurofilament staining within the neural tube [6]: no effect
levels of immunodetectable Is11 protein ([6]; 9.5 dpc mouse neural tube explants): significantly decreased
Shh-enhanced GliRE-CAT reporter activity [7]: sensitive
